Experimental data reported in ChEMBL document CHEMBL3259784, “Synthesis of novel 2-mercaptobenzoxazole based 1,2,3-triazoles as inhibitors of proinflammatory cytokines and suppressors of COX-2 gene expression” (Eur J Med Chem, 2014).
Calls of active or inactive are those of the source. No cut-off for these calls is given here.

Tests used:
[1] = molecular target: T1, Prostaglandin G/H synthase 2 (Homo sapiens, UniProt P35354); test: Inhibition of COX-2 (unknown origin)
T1 sequence (P35354 whole entry): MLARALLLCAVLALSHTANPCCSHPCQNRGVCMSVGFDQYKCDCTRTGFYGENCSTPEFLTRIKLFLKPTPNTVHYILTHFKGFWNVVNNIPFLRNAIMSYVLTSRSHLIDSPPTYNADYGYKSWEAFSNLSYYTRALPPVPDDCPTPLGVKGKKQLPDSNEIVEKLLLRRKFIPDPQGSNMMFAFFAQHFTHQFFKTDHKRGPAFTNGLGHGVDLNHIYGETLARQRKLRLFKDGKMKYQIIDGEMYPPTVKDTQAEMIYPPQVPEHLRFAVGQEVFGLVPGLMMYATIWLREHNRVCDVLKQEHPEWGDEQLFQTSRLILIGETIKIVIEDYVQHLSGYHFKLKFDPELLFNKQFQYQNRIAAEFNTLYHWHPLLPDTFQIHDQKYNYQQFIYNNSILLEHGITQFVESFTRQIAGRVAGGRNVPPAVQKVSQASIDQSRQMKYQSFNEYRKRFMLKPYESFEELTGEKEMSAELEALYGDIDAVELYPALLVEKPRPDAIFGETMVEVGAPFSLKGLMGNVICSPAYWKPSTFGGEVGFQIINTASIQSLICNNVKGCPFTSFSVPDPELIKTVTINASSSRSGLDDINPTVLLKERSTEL

Rattus norvegicus [2] = test: Antiinflammatory activity against carrageenan-induced hind paw Albino Wistar rat model assessed as reduction in nitric oxide level in hind paw at 0.05 mmol/kg, po treated 1 hr before carrageenan challenge by griess reagent based microplate reader analysis; assay type: functional, organism-based
[3] = molecular target: Prostaglandin G/H synthase 1 (Homo sapiens, UniProt P23219); test: Inhibition of COX-1 (unknown origin)
Rattus norvegicus [4] = test: Antiinflammatory activity in Albino Wistar rat assessed as inhibition of carrageenan-induced hind paw edema at 0.05 mmol/kg, po treated 1 hr before carrageenan challenge by plethysmometer analysis; assay type: functional, organism-based; settings: TDE = time-dependent effect
Rattus norvegicus [5] = test: Ulcerogenicity in Albino Wistar rat assessed as gastric ulceration and rupture of gastric mucosal layer at 0.15 mmol/kg, po measured after 5 hrs; assay type: toxicity, organism-based, Gastric mucosa; settings: in vivo
Rattus norvegicus [6] = test: Antioxidant activity in carrageenan-induced hind paw Albino Wistar rat model assessed as inhibition of lipid peroxidation by measuring TBARS level in hind paw at 0.05 mmol/kg, po treated 1 hr before carrageenan challenge by microplate reader analysis; assay type: functional
Rattus norvegicus [7] = test: Antiinflammatory activity against carrageenan-induced hind paw Albino Wistar rat model assessed as reduction in serum IL-1 beta level at 0.05 mmol/kg, po treated 1 hr before carrageenan challenge by ELISA; assay type: functional
Rattus norvegicus [8] = test: Antiinflammatory activity against carrageenan-induced hind paw Albino Wistar rat model assessed as reduction in serum TNF-alpha level at 0.05 mmol/kg, po treated 1 hr before carrageenan challenge by ELISA; assay type: functional
Rattus norvegicus [9] = test: Antioxidant activity in carrageenan-induced hind paw Albino Wistar rat model assessed as increase in GSH level in hind paw joint at 0.05 mmol/kg, po treated 1 hr before carrageenan challenge measured per gm of tissue by plate reader analysis (reference value: 0.58 +/-0.02 ug); assay type: functional
Rattus norvegicus [10] = test: Antiinflammatory activity against carrageenan-induced hind paw Albino Wistar rat model assessed as reduction in serum COX2 level at 0.05 mmol/kg, po treated 1 hr before carrageenan challenge by ELISA; assay type: functional
Rattus norvegicus [11] = test: Antiinflammatory activity against carrageenan-induced hind paw Albino Wistar rat model assessed as reduction in nitric oxide level in hind paw at 0.05 mmol/kg, po treated 1 hr before carrageenan challenge measured per mg of wet tissue by griess reagent based microplate reader analysis; assay type: functional
Rattus norvegicus [12] = test: Antiinflammatory activity in Albino Wistar rat assessed as inhibition of carrageenan-induced hind paw edema at 0.05 mmol/kg, po treated 1 hr before carrageenan challenge measured 5 hrs post-carrageenan injection by plethysmometer analysis; assay type: functional
Rattus norvegicus [13] = test: Antiinflammatory activity in Albino Wistar rat assessed as inhibition of carrageenan-induced hind paw edema at 0.05 mmol/kg, po treated 1 hr before carrageenan challenge measured 3 hrs post-carrageenan injection by plethysmometer analysis; assay type: functional
HeLa = test: Decrease in COX-2 gene expression in human HeLa cells at 10 uM after 24 hrs by real time PCR analysis relative to celecoxib; assay type: functional
Mus musculus = test: Antinociceptive activity in mouse assessed as inhibition of acetic acid-induced writhing at 0.05 mmol/kg, po administered 30 mins prior to acetic acid challenge measured for 20 mins after acetic acid injection; assay type: functional

Prostaglandin G/H synthase 1, sequence (P23219 whole entry): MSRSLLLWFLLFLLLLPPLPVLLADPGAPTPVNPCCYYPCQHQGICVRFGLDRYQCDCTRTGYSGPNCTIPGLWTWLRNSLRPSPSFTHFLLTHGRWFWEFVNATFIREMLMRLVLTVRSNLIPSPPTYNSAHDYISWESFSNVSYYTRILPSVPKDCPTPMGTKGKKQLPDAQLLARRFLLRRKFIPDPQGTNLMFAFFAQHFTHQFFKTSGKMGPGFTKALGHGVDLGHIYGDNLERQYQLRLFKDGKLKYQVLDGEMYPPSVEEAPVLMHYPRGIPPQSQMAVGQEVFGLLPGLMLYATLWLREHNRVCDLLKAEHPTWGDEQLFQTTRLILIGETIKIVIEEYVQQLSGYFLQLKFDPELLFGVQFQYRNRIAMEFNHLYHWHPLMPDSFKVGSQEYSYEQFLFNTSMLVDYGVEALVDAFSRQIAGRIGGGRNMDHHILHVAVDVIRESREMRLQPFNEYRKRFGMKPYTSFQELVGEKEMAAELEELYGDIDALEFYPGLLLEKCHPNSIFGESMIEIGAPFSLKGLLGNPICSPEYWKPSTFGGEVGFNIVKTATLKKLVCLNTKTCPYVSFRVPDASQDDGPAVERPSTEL

| IC50 [1] [µM] | IC50 [3] [µM] | SMILES | inhibition (Rattus norvegicus [2]) | inhibition (Rattus norvegicus [4]) | also measured |
| --- | --- | --- | --- | --- | --- |
| 4.35 | 140 | Cc1ccc(-n2cc(CSc3nc4ccccc4o3)nn2)cc1C | Active | tde | – |
| 3.5 | 163 | CCOc1ccc(-n2cc(CSc3nc4ccccc4o3)nn2)cc1 | Active | tde | Activity (Rattus norvegicus [5]): Non-toxic; Activity (Rattus norvegicus [6]): 5.1 nmol; Activity (Rattus norvegicus [7]): 2.66 pg/mL; inhibition (Rattus norvegicus [8]): Active; Activity (Rattus norvegicus [9]): 0.84 µg; inhibition (Rattus norvegicus [10]): Active |
| 3.8 | 246 | CCc1ccc(-n2cc(CSc3nc4ccccc4o3)nn2)cc1 | Active | tde | Activity (Rattus norvegicus [11]): 5.1 µmol; Activity (Rattus norvegicus [5]): Non-toxic; inhibition in vivo at 50 µmol/kg (Rattus norvegicus [12]): 61.1%; inhibition (Rattus norvegicus [7]): Active; inhibition (Rattus norvegicus [8]): Active; inhibition in vivo at 50 µmol/kg (Rattus norvegicus [13]): 66.7%; Activity (Rattus norvegicus [9]): 0.84 µg; inhibition (Rattus norvegicus [10]): Active; fold change (FC) (HeLa): 0.94 |
| 2.4 | 24.2 | Fc1ccccc1-n1cc(CSc2nc3ccccc3o2)nn1 | Active | tde | – |
| 3.85 | 154 | CC(C)(C)c1ccc(-n2cc(CSc3nc4ccccc4o3)nn2)cc1 | Active | tde | – |
| 1.9 | 80.8 | Clc1ccc(-n2cc(CSc3nc4ccccc4o3)nn2)cc1 | Active | tde | Activity (Rattus norvegicus [5]): Non-toxic; inhibition in vivo at 50 µmol/kg (Rattus norvegicus [12]): 55.5%; inhibition in vivo at 50 µmol/kg (Mus musculus): 51.5%; inhibition (Rattus norvegicus [7]): Active; inhibition (Rattus norvegicus [8]): Active; inhibition in vivo at 50 µmol/kg (Rattus norvegicus [13]): 68.9%; inhibition (Rattus norvegicus [10]): Active |
| 9.87 | 115 | O=[N+]([O-])c1ccc(-n2cc(CSc3nc4ccccc4o3)nn2)cc1 | Active | tde | – |
| 5.21 | 192 | Fc1ccc(-n2cc(CSc3nc4ccccc4o3)nn2)cc1 | Active | tde | – |
| 3.53 | 44.4 | Clc1ccccc1-n1cc(CSc2nc3ccccc3o2)nn1 | Active | tde | – |
| 9.58 | 104 | O=[N+]([O-])c1cccc(-n2cc(CSc3nc4ccccc4o3)nn2)c1 | Active | tde | – |
| 5.03 | 103 | Clc1ncccc1-n1cc(CSc2nc3ccccc3o2)nn1 | Active | tde | – |
| 2.75 | 38.4 | Brc1ccccc1-n1cc(CSc2nc3ccccc3o2)nn1 | Active | tde | – |
| 3.98 | 96.6 | c1cncc(-n2cc(CSc3nc4ccccc4o3)nn2)c1 | Active | tde | – |
| 2.3 | 89.4 | COc1ccc(-n2cc(CSc3nc4ccccc4o3)nn2)cc1 | Active | tde | Activity (Rattus norvegicus [5]): Non-toxic; inhibition in vivo at 50 µmol/kg (Mus musculus): 55.5%; inhibition (Rattus norvegicus [7]): Active; Activity (Rattus norvegicus [8]): 3.1 pg/mL; Activity (Rattus norvegicus [10]): 6.54 nmol/min/mL |
| – | – | Cc1ccc(-c2cc(C(F)(F)F)nn2-c2ccc(S(N)(=O)=O)cc2)cc1 [CELECOXIB] | Active | – | Activity (Rattus norvegicus [11]): 5.5 µmol; inhibition in vivo at 50 µmol/kg (Rattus norvegicus [12]): 65.5%; Activity (Rattus norvegicus [6]): 6.3 nmol; inhibition in vivo at 50 µmol/kg (Mus musculus): 70.9%; Activity (Rattus norvegicus [7]): 2.9 pg/mL; Activity (Rattus norvegicus [8]): 3.35 pg/mL; inhibition in vivo at 50 µmol/kg (Rattus norvegicus [13]): 72.2%; Activity (Rattus norvegicus [9]): 0.81 µg; Activity (Rattus norvegicus [10]): 7.9 nmol/min/mL |
| 2.8 | 186 | Brc1ccc(-n2cc(CSc3nc4ccccc4o3)nn2)cc1 | Active | tde | Activity (Rattus norvegicus [5]): Non-toxic; inhibition (Rattus norvegicus [7]): Active; inhibition (Rattus norvegicus [8]): Active; inhibition (Rattus norvegicus [10]): Active; fold change (FC) (HeLa): 0.79 |
| 4.63 | 88.3 | Clc1cccc(-n2cc(CSc3nc4ccccc4o3)nn2)c1 | Active | tde | – |
| 6.42 | 107 | c1ccc(-n2cc(CSc3nc4ccccc4o3)nn2)cc1 | Active | tde | – |
| 4.68 | 132 | Cc1ccccc1-n1cc(CSc2nc3ccccc3o2)nn1 | Active | tde | – |
